Reference: article doi:[…]/2021.10.07.463234v2 (biorxiv, 2021)
Structures can show the parent of a compound that is named as a salt. Numbered stars: 1 amine (or outer) side, 2 acyl side, 3 side chain; on linkers, the order of the positions; unused ones are H or OH. Bridge positions count the residues as written; N and C are the ends. Square brackets hold non-standard residues; d marks the D form. Peptide text beside a SMILES is read from it. * marks the point of attachment. pTerphenylCO(4''-OnC5H11) = CCCCCOc1ccc(-c2ccc(-c3ccc(C(=O)*)cc3)cc2)cc1; Orn(4R-OH,5R-OH) = O=C([C@H](C[C@@H](O)[C@@H](O)N[*:3])N[*:1])[*:2]; hTyr(3S-OH,4S-OH) = N[C@H](C(=O)O)[C@H](O)[C@@H](O)c1ccc(O)cc1; Pro(3S-OH,4S-Me) = C[C@H]1CN[C@H](C(=O)O)[C@H]1O; Hyp = O=C(O)[C@@H]1C[C@@H](O)CN1

Molecular target: SARS-CoV-2 Mac1 (Severe acute respiratory syndrome coronavirus 2, UniProt P0DTD1)
Assay: biochemical
Details: for inhibition at 100 µM: read-out: %inhibition; for %inhibition: 100 µM, inhibitor

| SMILES | inhibition at 100 µM [%] | %inhibition [%] |
| --- | --- | --- |
| COc1ccc2c(O[C@@H]3C[C@H]4C(=O)N[C@]5(C(=O)NS(=O)(=O)C6CC6)C[C@H]5/C=C\CCCCN(C)C(=O)[C@@H]4C3)cc(-c3nc(C(C)C)cs3)nc2c1C [Simeprevir] | 11.4 | – |
| NC(=O)CN1CCCC1=O [Piracetam] | 9.88 | – |
| Cc1ccc(C(C)C)c(O)c1 [Thymol] | 0.387 | – |
| CCn1nc(C(=O)O)c(=O)c2cc3c(cc21)OCO3 [Cinoxacin] | 0.626 | – |
| CC(C)C[C@H](NC(=O)CNC(=O)c1cc(Cl)ccc1Cl)B1OC(=O)CC(CC(=O)O)(C(=O)O)O1 (stereo partly drawn) [Ixazomib Citrate (MLN9708)] | 0 | – |
| Cc1c(-c2ccc(O)cc2)n(Cc2ccc(OCCN3CCCCCC3)cc2)c2ccc(O)cc12 [Bazedoxifene HCl] | – | 0 |
| CCOC(=O)[C@H](CCc1ccccc1)N[C@@H](C)C(=O)N1Cc2ccccc2C[C@H]1C(=O)O [Quinapril HCl] | 25 | – |
| CC(=O)[C@@]1(O)CC[C@H]2[C@@H]3CCC4=CC(=O)CCC4=C3[C@@H](c3ccc(N(C)C)cc3)C[C@@]21C [Ulipristal] | 0.321 | – |
| COc1ccc(NC(=O)c2ccc(C(=N)N(C)C)cc2)c(C(=O)Nc2ccc(Cl)cn2)c1 [Betrixaban] | – | 0 |
| CCOC(=O)[C@H]1O[C@@H]1C(=O)N[C@@H](CC(C)C)C(=O)NCCC(C)C [Aloxistatin] | 0 | – |
| Nc1nc(=O)n([C@@H]2CS[C@H](CO)O2)cc1F [Emtricitabine] | 0 | – |
| NCCCC[C@H](N)C(=O)O [L-Lysine hydrochloride] | 9.1 | – |
| COc1ccccc1OCC(O)CN1CCN(CC(=O)Nc2c(C)cccc2C)CC1 (stereo not drawn) [Ranolazine 2HCl] | – | 0 |
| CN1CCc2nc(C(=O)N[C@@H]3C[C@@H](C(=O)N(C)C)CC[C@@H]3NC(=O)C(=O)Nc3ccc(Cl)cn3)sc2C1 [Edoxaban] | – | 4.891 |
| COC(=O)CCc1ccc(OCC(O)CNC(C)C)cc1 (stereo not drawn) [Esmolol HCl] | 12 | – |
| CCNC1(c2cccs2)CCCCC1=O (stereo not drawn) [Tiletamine Hydrochloride] | 0 | – |
| CC1(C)C[C@@H]1C(=O)N/C(=C\CCCCSC[C@H](N)C(=O)O)C(=O)O [Cilastatin] | 0 | – |
| NC(=O)c1ncn([C@@H]2O[C@H](CO)[C@@H](O)[C@H]2O)n1 [Ribavirin] | 0.0871 | – |
| O=C(O)c1cc(=O)c2c(OCC(O)COc3cccc4oc(C(=O)O)cc(=O)c34)cccc2o1 [Disodium Cromoglycate] | 3.63 | – |
| CN1CCc2nc(C(=O)N[C@@H]3C[C@@H](C(=O)N(C)C)CC[C@@H]3NC(=O)C(=O)Nc3ccc(Cl)cn3)sc2C1 [Edoxaban tosylate Monohydrate] | – | 20.23 |
| N=C(N)NC(=O)c1nc(Cl)c(N)nc1N [Amiloride HCl] | – | 0 |
| CCC(=O)O[C@]1(C(=O)SCF)[C@H](C)C[C@H]2[C@@H]3C[C@H](F)C4=CC(=O)C=C[C@]4(C)[C@@]3(F)[C@@H](O)C[C@@]21C [Fluticasone propionate] | 9.66 | – |
| COc1cc2c(cc1OC)[C@@]13CCN4CC5=CCO[C@H]6CC(=O)N2[C@H]1[C@H]6[C@H]5C[C@H]43 [Brucine sulfate salt hydrate] | 0 | – |
| S=c1[nH]cnc2nc[nH]c12 [Mercaptopurine (6-MP)] | 19.8 | – |

| SMILES | inhibition at 100 µM [%] | %inhibition [%] |
| --- | --- | --- |
| O=C(C1CCCCC1)N1CC(=O)N2CCc3ccccc3C2C1 (stereo not drawn) [Praziquantel] | 0 | – |
| CC1(C)S[C@@H]2[C@H](NC(=O)[C@H](N)c3ccc(O)cc3)C(=O)N2[C@H]1C(=O)O [Amoxicillin] | – | 9.546 |
| CCCCCOc1ccc(-c2ccc(-c3ccc(C(=O)N[C@H]4C[C@@H](O)[C@@H](O)NC(=O)[C@@H]5[C@@H](O)[C@@H](C)CN5C(=O)[C@H]([C@@H](C)O)NC(=O)[C@H]([C@H](O)[C@@H](O)c5ccc(O)cc5)NC(=O)[C@@H]5C[C@@H](O)CN5C(=O)[C@H]([C@@H](C)O)NC4=O)cc3)cc2)cc1 [Anidulafungin (LY303366)] ({pTerphenylCO(4''-OnC5H11)}-[Orn(4R-OH,5R-OH)]T[Hyp][hTyr(3S-OH,4S-OH)]T[Pro(3S-OH,4S-Me)]; lactam 1-C) | 6.34 | – |
| NS(=O)(=O)c1cc(Cl)c(Cl)c(S(N)(=O)=O)c1 [Dichlorphenamide (Diclofenamide)] | 3.01 | – |
| C[C@H](NCc1ccc(OCc2cccc(F)c2)cc1)C(N)=O [Safinamide] | 15 | – |
| O=C(Cn1ccnc1[N+](=O)[O-])NCc1ccccc1 [Benznidazole] | 0 | – |
| COCCOC(=O)C1=C(C)NC(C)=C(C(=O)OC/C=C/c2ccccc2)C1c1cccc([N+](=O)[O-])c1 (stereo not drawn) [Cilnidipine] | 0 | – |
| NC(=O)CC[C@@H](N)C(=O)O [D-glutamine] | 2.59 | – |
| COc1cc(C)c(/C=C/C(C)=C/C=C/C(C)=C/C(=O)O)c(C)c1C [Acitretin] | 7.72 | – |
| Oc1c(Cl)cc(Cl)c(Cl)c1Cc1c(O)c(Cl)cc(Cl)c1Cl [Hexachlorophene] | 0 | – |
| CCCCC(F)(F)[C@@]1(O)CC[C@H]2[C@@H](CC(=O)[C@@H]2CCCCCCC(=O)O)O1 [Lubiprostone] | 13.8 | – |
| CC1(C)S[C@@H]2[C@H](NC(=O)[C@H](NC(=O)N3CCNC3=O)c3ccccc3)C(=O)N2[C@H]1C(=O)O [Azlocillin sodium salt] | 0 | – |
| CN(C)/N=N/c1[nH]cnc1C(N)=O [Dacarbazine] | 26.1 | – |
| C[C@@H]1C[C@H]2[C@@H]3CCC4=CC(=O)C=C[C@]4(C)[C@@]3(F)[C@@H](O)C[C@]2(C)[C@@]1(O)C(=O)CO [Dexamethasone (DHAP)] | – | 0 |
| CCc1cc(C(N)=S)ccn1 [Ethionamide] | 19.8 | – |
| CC(C)N(CCC(C(N)=O)(c1ccccc1)c1ccccn1)C(C)C (stereo not drawn) [Disopyramide] | – | 8.31 |
| CC(C)(C)Cn1c(N)nc2ccc(-c3[nH]c(C(C)(C)C)nc3-c3ccc(F)cc3)nc21 [Ralimetinib (LY2228820)] | 0.925 | – |
| Cc1c(-c2ccccc2)oc2c(C(=O)OCCN3CCCCC3)cccc2c1=O [Flavoxate HCl] | 0 | – |
| Nc1ccn([C@@H]2CS[C@H](CO)O2)c(=O)n1 [Lamivudine] | 0 | – |
| COCCc1ccc(OCC(O)CNC(C)C)cc1 (stereo not drawn) [Metoprolol Tartrate] | – | 45.82 |
| CC1(C)[C@@H](O)CC[C@]2(C)[C@H]3C(=O)C=C4[C@@H]5C[C@@](C)(C(=O)O)CC[C@]5(C)CC[C@@]4(C)[C@]3(C)CC[C@@H]12 [Enoxolone] | 0 | – |
| C[C@H](CCC(=O)O)[C@H]1CC[C@H]2[C@@H]3CC[C@@H]4C[C@H](O)CC[C@]4(C)[C@H]3CC[C@]12C [Lithocholic acid] | 0 | – |
| CN(CCOc1ccc(NS(C)(=O)=O)cc1)CCc1ccc(NS(C)(=O)=O)cc1 [Dofetilide] | 8.13 | – |
| CCN1CCN(c2cc3c(cc2F)c(=O)c(C(=O)O)cn3C2CC2)CC1 [Enrofloxacin] | 16.9 | – |

| SMILES | inhibition at 100 µM [%] | %inhibition [%] |
| --- | --- | --- |
| CC1Cc2ccccc2N1NC(=O)c1ccc(Cl)c(S(N)(=O)=O)c1 (stereo not drawn) [Indapamide] | 36.3 | – |
| COC(=O)[C@H]1[C@H]2C[C@@H]3c4[nH]c5cc(OC)ccc5c4CCN3C[C@H]2C[C@@H](OC(=O)c2cc(OC)c(OC)c(OC)c2)[C@@H]1OC [Reserpine] | 0 | – |
| CN1[C@@H]2CCC[C@H]1C[C@@H](NC(=O)c1nn(C)c3ccccc13)C2 [Granisetron] | – | 0.5264 |
| CC1(C)NC(=O)N(c2ccc([N+](=O)[O-])c(C(F)(F)F)c2)C1=O [Nilutamide] | 3.89 | – |
| CC[C@H]1[C@@H]2C[C@H]3[C@@H]4N(C)c5ccccc5[C@]45C[C@@H]([C@H]2[C@H]5O)N3[C@@H]1O [Ajmaline] | 18.1 | – |
| Clc1ccc(C(c2ccccc2Cl)C(Cl)Cl)cc1 (stereo not drawn) [Mitotane] | 46.2 | – |
| Cc1cccc(N(C)C(=S)Oc2ccc3ccccc3c2)c1 [Tolnaftate] | 0 | – |
| C=CCNC(N)=S [Allylthiourea] | 7.98 | – |
| CC(C)n1c(/C=C/[C@@H](O)C[C@@H](O)CC(=O)O)c(-c2ccc(F)cc2)c2ccccc21 (racemic) [Fluvastatin Sodium] | 30 | – |
| Cc1ccc2c(c1)[C@]13CCCC[C@@H]1[C@H](C2)N(C)CC3 [Dimemorfan phosphate] | 0 | – |
| CC(C)(C)c1nc(-c2cccc(NS(=O)(=O)c3c(F)cccc3F)c2F)c(-c2ccnc(N)n2)s1 [Dabrafenib (GSK2118436)] | – | 34.76 |
| CC(C)(Oc1ccc(CCNC(=O)c2ccc(Cl)cc2)cc1)C(=O)O [Bezafibrate] | 9.85 | – |
| CCOC(=O)[C@H](CCc1ccccc1)N[C@@H](C)C(=O)N1Cc2cc(OC)c(OC)cc2C[C@H]1C(=O)O [Moexipril HCl] | 0 | – |
| CC(C)(C)c1cc(NC(=O)Nc2ccc(-c3cn4c(n3)sc3cc(OCCN5CCOCC5)ccc34)cc2)no1 [Quizartinib (AC220)] | 0 | – |
| Clc1ccccc1CN1CCc2sccc2C1 [Ticlopidine HCl] | 0.00536 | – |
| Cc1cn([C@@H]2C[C@@H](O)[C@H](CO)O2)c(=O)[nH]c1=O [Telbivudine] | 0 | – |
| CCOc1ccccc1O[C@H](c1ccccc1)[C@H]1CNCCO1 (racemic) [Reboxetine mesylate] | 0 | – |
| Cc1ccc(Sc2ccccc2N2CCNCC2)c(C)c1 [Vortioxetine] | – | 4.926 |
| CC(C(=O)O)c1cccc(C(=O)c2ccccc2)c1 (stereo not drawn) [Ketoprofen] | 0 | – |
| O=C(c1ccc(F)cc1)C1CCN(CCn2c(=O)[nH]c3ccccc3c2=O)CC1 [Ketanserin] | 11.6 | – |
| COc1ccc(-n2nc(C(N)=O)c3c2C(=O)N(c2ccc(N4CCCCC4=O)cc2)CC3)cc1 [Apixaban] | 0 | – |
| CC(C)(C)NC(=O)[C@H]1CC[C@H]2[C@@H]3CC[C@H]4NC(=O)C=C[C@]4(C)[C@H]3CC[C@]12C [Finasteride] | 0 | – |
| O=S(=O)(O)CCSSCCS(=O)(=O)O [Dimesna] | 22.1 | – |
| O=c1c(-n2ccnn2)c[nH]n1-c1cc(N2CCOCC2)ncn1 [Molidustat (BAY 85-3934)] | 19.3 | – |
